# Like-named read-outs stand apart in the source and are kept apart here.
# Assays:
# Vapor pressure at 20° C. = assay type: physicochemical
# Description: (§1) The alcohol used as the poorly water-soluble solvent has a vapor pressure at 20° C. of 0.5 mmHg or less and a surface tension of 30.0 mN/m or more as described above. When a poorly water-soluble alcohol having a vapor pressure at 20° C. of more than 0.5 mmHg forms a film on an ejection opening of a recording head, the film evaporates unfortunately, and the effect of suppressing water evaporation is reduced. In consideration of this point, the poorly water-soluble alcohol preferably has a vapor pressure at 20° C. of 0.2 mmHg or less and more preferably 0.1 mmHg or less. Meanwhile, a poorly water-soluble alcohol having a surface tension of less than 30.0 mN/m has a weak intermolecular force, and thus the poorly water-soluble alcohol cannot form a film even when separated from an ink. In consideration of this point, the poorly water-soluble alcohol preferably has a surface tension of 36.0 mN/m or more. The poorly water-soluble alcohol preferably has a surface tension of 50 mN/m or less.
# [1] = Partition coefficient (n-octanol / water), common logarithm; settings: for LogPA: poorly water-soluble alcohol (solvent A); for LogPB: highly water-soluble solvent (solvent B); for Log partition coefficient: solvents used in Comparative Examples
# [2] = Solubility in water at 20° C. (saturated solubility); assay type: physicochemical
# Description: As the poorly water-soluble solvent, at least an alcohol having a vapor pressure at 20° C. of 0.5 mmHg or less and a surface tension of 30.0 mN/m or more (hereinafter also called “poorly water-soluble alcohol”) is used.
# Surface tension = assay type: physicochemical
# Description: The present invention will now be more specifically described with reference to preferred embodiments, but the invention is not intended to be limited to the following embodiments. In the present specification, an aqueous ink for ink jet may be simply called “ink”. Physical property values are values determined at normal temperature (25° C.) unless otherwise noted.
# as §1
# [3] = solvents used in Comparative Examples
Vapor pressure (Vapor pressure at 20° C.),LogPA [1],Solubility [2],Surface tension (Surface tension),Compound,LogPB [1],further results
0.1 mmHg,,2.20 g/100 g-H2O,39.7 mN/m,OCCc1ccccc1 [Phenethyl alcohol],,
0.0 mmHg,2.40,0.10 g/100 g-H2O,38.3 mN/m,OCCCCc1ccccc1 [4-Phenyl-1-butanol],,
0.1 mmHg,1.03,4.29 g/100 g-H2O,39.0 mN/m,OCc1ccccc1 [Benzyl alcohol],,
,,≥ 20 g/100 g-H2O,,OCCOCCOCCO [Triethylene glycol],−1.87,

# Second part, the molecule before the results:
Compound,Vapor pressure (Vapor pressure at 20° C.),LogPA [1],Solubility [2],Surface tension (Surface tension),LogPB [1],further results
OCCOc1ccccc1 [2-Phenoxyethanol],0.0 mmHg,1.16,2.67 g/100 g-H2O,40.0 mN/m,,
COCCOCCO [Methyl carbitol],,,,,−1.16,
C=CC(C)(O)CCC=C(C)C (centres unmarked) [Linalool],,,,,,"Vapor pressure (Vapor pressure at 20° C.; [3]): 0.2 mmHg; Solubility [2, 3]: 1.50 g/100 g-H2O; Surface tension (Surface tension; [3]): 26.6 mN/m"
CC(O)CO (centres unmarked) [Propylene glycol],,,,,−1.34,
CC(O)COc1ccccc1 (centres unmarked) [1-Phenoxy-2-propanol],0.0 mmHg,1.51,1.10 g/100 g-H2O,37.7 mN/m,,
OCCO [Ethylene glycol],,,,,−1.69,
O=CCc1ccccc1 [Phenylacetaldehyde],,,,,,Vapor pressure (Vapor pressure at 20° C.; [3]): 0.4 mmHg; Surface tension (Surface tension; [3]): 35.9 mN/m
COc1ccc(C=O)cc1 [p-Anisaldehyde],,,,,,"Vapor pressure (Vapor pressure at 20° C.; [3]): 0.0 mmHg; Solubility [2, 3]: 0.40 g/100 g-H2O; Surface tension (Surface tension; [3]): 37.2 mN/m"
OCC(O)CO [Glycerol],,,,,−2.32,
CC(O)Cc1ccccc1 (centres unmarked) [1-Phenyl-2-propanol],0.1 mmHg,1.71,0.58 g/100 g-H2O,37.3 mN/m,,
CC(=O)OCc1ccccc1 [Benzyl acetate],,,,,,"Vapor pressure (Vapor pressure at 20° C.; [3]): 0.2 mmHg; Log partition coefficient [1]: 1.84; Solubility [2, 3]: 0.30 g/100 g-H2O; Surface tension (Surface tension; [3]): 35.9 mN/m"
OCCCc1ccccc1 [3-Phenyl-1-propanol],0.0 mmHg,1.88,0.57 g/100 g-H2O,38.9 mN/m,,
O=C1CCCN1 [2-Pyrrolidone],,,,,−1.01,
"CCCCCO [Example 1-Pentanol, 1-Pentanol]",,,,,,"Vapor pressure (Vapor pressure at 20° C.; [3]): 1.5 mmHg; Log partition coefficient [1]: 1.41; Solubility [2, 3]: 2.20 g/100 g-H2O; Surface tension (Surface tension; [3]): 25.5 mN/m"

# From patent US10836921B2, “Ink, ink cartridge, and ink jet recording method” (CANON KABUSHIKI KAISHA, priority 2016, dated 2020)
